Legend:
NHE3 = target: T1, NHE3 (Homo sapiens, UniProt P48764); assay: Cell-based assay of NHE-3 activity (persistent inhibition), human; conditions: human Persistence, 60 min incubation then washout
T1 construct: expressed in transfected cells
T1 sequence (P48764 26-834): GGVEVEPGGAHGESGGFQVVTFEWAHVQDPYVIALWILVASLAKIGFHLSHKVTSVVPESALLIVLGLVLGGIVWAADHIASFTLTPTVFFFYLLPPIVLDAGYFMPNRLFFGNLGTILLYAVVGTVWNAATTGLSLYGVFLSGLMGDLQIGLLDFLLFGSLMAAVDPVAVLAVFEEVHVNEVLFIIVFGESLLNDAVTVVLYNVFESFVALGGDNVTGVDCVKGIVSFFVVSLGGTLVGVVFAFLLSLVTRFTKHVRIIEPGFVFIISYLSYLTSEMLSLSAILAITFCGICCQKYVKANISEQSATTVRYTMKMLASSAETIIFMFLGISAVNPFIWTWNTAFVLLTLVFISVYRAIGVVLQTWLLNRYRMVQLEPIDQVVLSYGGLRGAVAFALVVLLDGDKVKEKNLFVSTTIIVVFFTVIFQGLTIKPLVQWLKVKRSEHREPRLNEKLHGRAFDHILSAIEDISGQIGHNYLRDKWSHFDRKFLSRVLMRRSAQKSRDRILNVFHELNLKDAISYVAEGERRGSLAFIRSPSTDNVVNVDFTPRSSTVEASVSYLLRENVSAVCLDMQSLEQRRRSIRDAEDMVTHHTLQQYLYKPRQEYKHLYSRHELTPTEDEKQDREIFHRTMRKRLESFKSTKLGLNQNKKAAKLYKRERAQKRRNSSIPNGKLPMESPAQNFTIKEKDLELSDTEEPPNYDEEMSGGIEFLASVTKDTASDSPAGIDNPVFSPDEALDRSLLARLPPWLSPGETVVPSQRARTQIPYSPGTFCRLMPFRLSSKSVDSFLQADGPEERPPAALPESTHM
T1 sequence (Q99653 2-195 partner limits assumed): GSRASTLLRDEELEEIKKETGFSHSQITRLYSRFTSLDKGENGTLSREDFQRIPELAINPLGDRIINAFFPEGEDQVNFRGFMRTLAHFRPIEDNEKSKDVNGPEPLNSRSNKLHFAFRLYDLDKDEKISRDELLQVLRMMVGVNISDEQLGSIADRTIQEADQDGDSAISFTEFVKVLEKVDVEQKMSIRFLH
How it was run: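 Persistent inhibition: compound (0-30 μM, 60 min, RT, NaCl-HEPES pH 7.4) removed before assay. Human NHE3/NHERF2 PS120 cells were then BCECF-loaded during NH4Cl pulse (30 min, 37 °C), acidified in Na+-free buffer, and Na+ added 10 min after washout; antiport measured as initial fluorescence-ratio change per minute.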

[1] = test system: human ileum monolayer culture; assay: Sustained inhibition of apical acid secretion in human organoid monolayer cell cultures (ileum); assay type: cell-based; conditions: 1 μM apical, dosed day 6, apical media pH day 8, vs DMSO; for inhibition at 1 µM: Homo sapiens, 48 h
Experimental: Basal media (BM) consisted of advanced DMEM/F12 containing 10 mM HEPES Invitrogen, 15630-080), 1:100 Glutamax (Invitrogen, 35050-061), and 1:100 penicillin/streptomycin (Invitrogen, 15140-122). Supplemented basal media (SBM) contained 1:100 N2 (Invitrogen, 17502-048), 1:50 B27 (Invitrogen, 12587-010), 1 mM N-acetylcysteine (Sigma, A9165), and 10 nM [Leu15]-gastrin I (Sigma, G9145). Growth factors used included 50 ng per mL mouse EGF (Peprotech, 315-09), 100 ng per mL mouse noggin (Peprotech, 250-38), 500 ng per mL human R-spondin 1 (R&D, 4645-RS), 100 ng per mL mouse Wnt-3a (R&D, 1324-WN), 20 μM. Y-27632 (Tocris, 1254), 10 mM nicotinamide (Sigma, N0636), 500 nM A83-01 (Tocris, 2939), 10 μM SB202190 (Tocris, 1264). Transwells were 0.4 μm pore polyester membrane 24-well Transwell inserts (Corning). Cultures were incubated at 37° C. in 5% CO2.
Human ileum organoids were cultured in WENRNAS (Wnt, EGF, noggin, R-spondin1, Nicotinamide, A83-01, SB202190) and typically grown for 7-12 days before being used to plate monolayer cultures. On day 0, organoid cultures embedded in Matrigel were treated with TrypLE Express to break organoids into small pieces and/or single cells. The cells were resuspended to 0.5×10^6 cells/mL in SBM containing WENRAY (Wnt, EGF, noggin, R-spondin1, A83-01, Y-27632). Following this step, 200 μL of cell suspension was plated into the apical side of a 24-well Transwell (100,000 cells/well) and 600 μL of SBM with WENRAY was added to the basolateral side. Ileum cells were differentiated with ENRA (EGF, noggin, R-spondin 1, A83-01) on day 3. The color of apical compartment turns from pink or orange to yellow due to the increase in NHE3 expression after differentiation.
Each human ileum monolayer culture well was washed twice with fresh SBM on the apical side on day 6 before compound dosing. All compound stocks were 10 mM dissolved in DMSO. Each compound stock was individually mixed with fresh SBM to reach final compound concentration 1 μM and dosed only on the apical side of the monolayer (total volume 200 μl). DMSO at the equivalent concentration was used as the vehicle control. Duplicate wells were dosed for each compound. On day 8, apical media pH was measured by pH electrode, to determine the ability of example compounds to produce sustained inhibition of NHE3 activity in a human monolayer culture system by preventing proton secretion into the apical compartment.

% inhibition (NHE3)	pIC50 (NHE3)	Compound	% inhibition (ileum) [1]	inhibition at 1 µM [1]
C (>70%)	C (NHE3 pIC50 > 7)	Cc1cc(S(=O)(=O)NCCOCCOCCNC(=O)NCCCCNC(=O)NCCOCCOCCNS(=O)(=O)c2ccc(O[C@H]3c4cc(Cl)cc(C)c4C[C@@H]3N(C)C)c(C)c2)ccc1O[C@H]1c2cc(Cl)cc(C)c2C[C@@H]1N(C)C [Example 17, 3-[2-(2-[2-[(4-[[(1S,2S)-6-Chloro-2-(dimethylamino)-4-methyl-2,3-dihydro-1H-inden-1-yl]oxy]-3-methylbenzene)sulfonamido]ethoxy]ethoxy)ethyl]-1-[4-([[2-(2-[2-[(4-[[(1S,2S)-6-chloro-2-(dimethylamino)-4-methyl-2,3-dihydro-1H-inden-1-yl]oxy]-3-methylbenzene)sulfonamido]ethoxy]ethoxy)ethyl]carbamoyl]amino)butyl]urea]	–	50 to 70%
C (>70%)	C (NHE3 pIC50 > 7)	CN(C)[C@H]1Cc2c(Cl)cc(Cl)cc2[C@@H]1Oc1ccc(S(=O)(=O)NCCOCCOCCNC(=O)NCCCCNC(=O)NCCOCCOCCNS(=O)(=O)c2ccc(O[C@H]3c4cc(Cl)cc(Cl)c4C[C@@H]3N(C)C)c(F)c2)cc1F [Example 23, 3-[2-(2-[2-[(4-[[(1S,2S)-4,6-Dichloro-2-(dimethylamino)-2,3-dihydro-1H-inden-1-yl]oxy]-3-fluorobenzene)sulfonamido]ethoxy]ethoxy)ethyl]-1-[4-([[2-(2-[2-[(4-[[(1S,2S)-4,6-dichloro-2-(dimethylamino)-2,3-dihydro-1H-inden-1-yl]oxy]-3-fluorobenzene)sulfonamido]ethoxy]ethoxy)ethyl]carbamoyl]amino)butyl]urea; bis(trifluoroacetic acid)]	–	50 to 70%
C (>70%)	–	Cc1cc(Cl)cc2c1C[C@H](N(C)C)[C@H]2Oc1ccc(S(=O)(=O)NCCOCCOCCNC(=O)NCCCCNC(=O)NCCOCCOCCNS(=O)(=O)c2ccc(O[C@H]3c4cc(Cl)cc(C)c4C[C@@H]3N(C)C)c(F)c2)cc1F [Example 24, 3-[2-(2-[2-[(4-[[(1S,2S)-6-Chloro-2-(dimethylamino)-4-methyl-2,3-dihydro-1H-inden-1-yl]oxy]-3-fluorobenzene)sulfonamido]ethoxy]ethoxy)ethyl]-1-[4-([[2-(2-[2-[(4-[[(1S,2S)-6-chloro-2-(dimethylamino)-4-methyl-2,3-dihydro-1H-inden-1-yl]oxy]-3-fluorobenzene)sulfonamido]ethoxy]ethoxy)ethyl]carbamoyl]amino)butyl]urea]	–	< 50%
C (>70%)	–	Cc1cc(S(=O)(=O)NCCOCCOCCNC(=O)NCCCCNC(=O)NCCOCCOCCNS(=O)(=O)c2ccc(O[C@H]3c4cc(Cl)cc(Cl)c4C[C@@H]3N3CCC[C@@H](N(C)C)C3)c(C)c2)ccc1O[C@H]1c2cc(Cl)cc(Cl)c2C[C@@H]1N1CCC[C@@H](N(C)C)C1 [Example 26, 3-[2-(2-[2-[(4-[[(1S,2S)-4,6-Dichloro-2-[(3R)-3-(dimethylamino)piperidin-1-yl]-2,3-dihydro-1H-inden-1-yl]oxy]-3-methylbenzene)sulfonamido]ethoxy]ethoxy)ethyl]-1-[4-([[2-(2-[2-[4-[[(1S,2S)-4,6-dichloro-2-[(3R)-3-(dimethylamino)piperidin-1-yl]-2,3-dihydro-1H-inden-1-yl]oxy]-3-methylbenzenesulfonamido]ethoxy]ethoxy)ethyl]carbamoyl]amino)butyl]urea; bis(trifluoroacetic acid)]	–	50 to 70%
C (>70%)	C (NHE3 pIC50 > 7)	Cc1cc(Cl)cc2c1C[C@H](N1CCC[C@@H](N(C)C)C1)[C@H]2Oc1ccc(S(=O)(=O)NCCOCCOCCNC(=O)NCCCCNC(=O)NCCOCCOCCNS(=O)(=O)c2ccc(O[C@H]3c4cc(Cl)cc(C)c4C[C@@H]3N3CCC[C@@H](N(C)C)C3)cc2)cc1 [Example 28, 3-[2-(2-[2-[(4-[[(1S,2S)-6-Chloro-2-[(3R)-3-(dimethylamino)piperidin-1-yl]-4-methyl-2,3-dihydro-1H-inden-1-yl]oxy]benzene)sulfonamido]ethoxy]ethoxy)ethyl]-1-[4-([[2-(2-[2-[(4-[[(1S,2S)-6-chloro-2-[(3R)-3-(dimethylamino)piperidin-1-yl]-4-methyl-2,3-dihydro-1H-inden-1-yl]oxy]benzene)sulfonamido]ethoxy]ethoxy)ethyl]carbamoyl]amino)butyl]urea; bis(trifluoroacetic acid)]	–	50 to 70%
C (>70%)	C (NHE3 pIC50 > 7)	Cc1cc(S(=O)(=O)NCCOCCOCCNC(=O)NCCCCNC(=O)NCCOCCOCCNS(=O)(=O)c2ccc(O[C@H]3c4cc(Cl)cc(C)c4C[C@@H]3N3CCC[C@@H](N(C)C)C3)c(C)c2)ccc1O[C@H]1c2cc(Cl)cc(C)c2C[C@@H]1N1CCC[C@@H](N(C)C)C1 [Example 29]	–	> 70%
C (>70%)	–	O=C(NCCCCNC(=O)NCCOCCOCCNS(=O)(=O)c1ccc(O[C@H]2c3cc(Cl)cc(Cl)c3C[C@@H]2N2CCNCC2)cc1)NCCOCCOCCNS(=O)(=O)c1ccc(O[C@H]2c3cc(Cl)cc(Cl)c3C[C@@H]2N2CCNCC2)cc1 [Example 31, 3-[2-(2-[2-[(4-[[(1S,2S)-4,6-Dichloro-2-(piperazin-1-yl)-2,3-dihydro-1H-inden-1-yl]oxy]benzene)sulfonamido]ethoxy]ethoxy)ethyl]-1-[4-([[2-(2-[2-[(4-[[(1S,2S)-4,6-dichloro-2-(piperazin-1-yl)-2,3-dihydro-1H-inden-1-yl]oxy]benzene)sulfonamido]ethoxy]ethoxy)ethyl]carbamoyl]amino)butyl]urea; bis(trifluoroacetic acid)]	–	> 70%

Compound	% inhibition (NHE3)	pIC50 (NHE3)	% inhibition (ileum) [1]	inhibition at 1 µM [1]
3-[2-(2-[2-[(4-[[(1S,2S)-4,6-Dichloro-2-[(3R)-3-[methyl(propan-2-yl)amino]piperidin-1-yl]-2,3-dihydro-1H-inden-1-yl]oxy]benzene) sulfonamido]ethoxy]ethoxy)ethyl]-1-[4-([[2-(2-[2-[(4-[[(1S,2S)-4,6-dichloro-2-[(3R)-3-[methyl(propan-2-yl)amino]piperidin-1-yl]-2,3-dihydro-1H-inden-1-yl]oxy]benzene)sulfonamido]ethoxy]ethoxy)ethyl]carbamoyl]amino)butyl]urea; bis(trifluoroacetic acid) [Example 78]	C (>70%)	–	C (>70%)	–
